Experimental data published in patent US7531527B2, “2-Propylidene-19-nor-vitamin D compounds” (Wisconsin Alumni Research Foundation, priority 2003, dated 2009).

Tests used:
[1] = system: human leukemia cells (HL-60 cells); assay: HL-60 cell differentiation (NBT reduction); type: cell-based; settings: for potency in promoting the differentiation of leukemia cells: HL-60 cells, compared with 1α,25-dihydroxyvitamin D3 and 2MD, FIG. 3; for percent of HL-60 cells induced to differentiate: NBT assay, concentration 1×10^−7M
Procedure: The differentiation of HL-60 promyelocytic into monocytes was determined as described by Ostrem et al (J. Biol. Chem. 262, 14164-14171, 1987).
Differentiation activity was assessed by a standard differentiation assay, abbreviated as NBT reduction (nitroblue tetrazolium reduction). The assay was conducted according to known procedures, as given, for example, by DeLuca et al U.S. Pat. No. 4,717,721 and Ostrem et al, J. Biol. Chem. 262, 14164, 1987. For the assay, the differentiation activity of the test compounds is expressed in terms of the percent of HL-60 cells having differentiated to normal cells in response to a given concentration of test compound.

[2] = system: 24-hydroxylase (24OHase) gene promoter; assay: Transcription activation, 24-hydroxylase promoter luciferase reporter in ROS 17/2.8 (bone) cells; type: cell-based; settings: ROS 17/2.8 cells, 16 hours after dosing, FIG. 4
Procedure: Transcriptional activity was measured in ROS 17/2.8 (bone) cells that were stably transfected with a 24-hydroxylase (24OHase) gene promoter upstream of a luciferase reporter gene (Arbour et al., 1998). Cells were given a range of doses. Sixteen hours after dosing the cells were harvested and luciferase activities were measured using a luminometer.
“RLU” in FIG. 4 refers to relative luciferase units.

[3] = molecular target: T1, recombinantly produced rat receptor (1α,25-hydroxyvitamin D3 rat receptor) (Rattus norvegicus, UniProt P13053); assay: Competitive VDR binding; settings: FIGS. 1 and 2
T1 construct: made in house
T1 sequence (P13053 1-423): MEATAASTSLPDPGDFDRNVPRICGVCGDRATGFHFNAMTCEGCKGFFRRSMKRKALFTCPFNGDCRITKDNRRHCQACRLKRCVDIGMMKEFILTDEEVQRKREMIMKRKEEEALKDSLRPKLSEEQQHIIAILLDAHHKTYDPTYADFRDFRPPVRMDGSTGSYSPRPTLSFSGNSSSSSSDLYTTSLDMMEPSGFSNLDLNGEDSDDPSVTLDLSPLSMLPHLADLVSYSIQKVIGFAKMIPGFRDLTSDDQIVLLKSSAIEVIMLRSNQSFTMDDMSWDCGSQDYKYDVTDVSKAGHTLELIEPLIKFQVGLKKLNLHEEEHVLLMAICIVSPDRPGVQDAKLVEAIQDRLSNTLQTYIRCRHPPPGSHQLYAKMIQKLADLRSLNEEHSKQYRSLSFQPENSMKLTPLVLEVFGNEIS
Procedure: Competitive binding of the analogs to the porcine intestinal receptor was carried out by the method described by Dame et al (Biochemistry 25, 4523-4534, 1986), except the recombinantly produced rat receptor was used as the receptor (see Vanhooke et al., Biochemistry, in press, 2004).

[4] = system: Male, weanling Sprague-Dawley rats; assay: Intestinal calcium transport (everted gut sac method); type: in vivo, rat; settings: four consecutive ip doses, FIG. 5
Procedure: (§1) Male, weanling Sprague-Dawley rats were placed on Diet 11 (0.47% Ca) diet+AEK for one week followed by Diet 11 (0.02% Ca)+AEK for 3 weeks. The rats were then switched to a diet containing 0.47% Ca for one week followed by two weeks on a diet containing 0.02% Ca. Dose administration began during the last week on 0.02% calcium diet. Four consecutive ip doses were given approximately 24 hours apart. Twenty-four hours after the last dose, blood was collected from the severed neck and the concentration of serum calcium determined as a measure of bone calcium mobilization. The first 10 cm of the intestine was also collected for intestinal calcium transport analysis using the everted gut sac method.

[5] = system: Male, weanling Sprague-Dawley rats; assay: Bone calcium mobilization (serum calcium); type: in vivo, rat; settings: four consecutive ip doses, FIG. 6
Procedure: as §1

| activity in binding to the 1α,25-hydroxyvitamin D3 rat receptor [3] | Substance | potency in promoting the differentiation of leukemia cells [1] | percent of HL-60 cells induced to differentiate [1] | transcriptional activity in bone cells [2] | intestinal calcium transport activity [4] | intestinal calcium transport activity compared with 2MD [4] | ability to mobilize calcium from bone [5] | bone calcium mobilization compared with 2MD [5] |
| --- | --- | --- | --- | --- | --- | --- | --- | --- |
| very active | 2-(3′-hydroxypropylidene)-19-nor-1α,25-(OH)2D3 [1AGR] | as potent as 1α,25-dihydroxyvitamin D3 and 2MD | the same degree of differentiation | significant transcriptional activity | relatively high intestinal calcium transport activity | more active than 2MD | significant ability to mobilize calcium from bone | less active in this regard than 2MD |
| very active | 2-(3′-hydroxypropylidene)-19-nor-(20S)-1α,25-(OH)2D3 [1AGS] | as potent as 1α,25-dihydroxyvitamin D3 and 2MD | the same degree of differentiation | significant transcriptional activity | relatively high intestinal calcium transport activity | more active than 2MD | significant ability to mobilize calcium from bone | less active in this regard than 2MD |
| – | 2-[(3′-methoxymethoxy)propylidene]-19-nor-1α,25-dihydroxyvitamin D3 [F-Wit] | – | – | significant transcriptional activity | relatively high intestinal calcium transport activity | more active than 2MD | significant ability to mobilize calcium from bone | less active in this regard than 2MD |
